The values that follow are results of earlier work, collected in patent US8071785B2, “Synthesis and evaluation of 18F-labelled-alkyl-1-[(1R)-1-phenylethyl]-1H-imidazole-5-carboxylate as a tracer for the quantification of β-11-hydroxylase enzyme in the adrenal glands” (priority 2006, dated 2011).

Structures are written as SMILES.

For data set [1], the system named is lesions of adrenocortical origin. As to conditions: clinical findings.
For data set [2], the system named is steroid 110-hydroxylation.
Where [3] appears, read: human adrenocortical tissue slices.

For `CC(c1ccccc1)n1cncc1C(=O)O[11CH3]` (centres unmarked) [[O-methyl-^11C]metomidate], in data set [1], the “uptake in lesions of adrenocortical origin, including adenomas” value is given as “high uptake” and the “uptake in lesions of non-adrenocortical origin” value is “very low uptake”.

As for `CCOC(=O)c1cncn1[C@H](C)c1ccccc1` [etomidate], in data set [2] (setting [3]), the “conversion of 11-deoxycorticosterone (DOC) to corticosterone and aldosterone” value was “block the conversion”; the “conversion of 11-deoxycortisol to cortisol” value is “block the conversion”.

`COC(=O)c1cncn1[C@H](C)c1ccccc1` [metomidate, Methyl 1-[(1R)-1-phenylethyl]-1H-imidazole-5-carboxylate]: in data set [2] (relative to etomidate), the “inhibition of steroid 110-hydroxylation” value is reported as “equally potent inhibitor”.
